The values below come from PMC5458555, “Conformational dynamics of dynamin-like MxA revealed by single-molecule FRET” (Nature Communications, 2017).

Assay [1] has as its target T1, MxA^MO2 (Homo sapiens, UniProt P20591, A149C/C322K/C336Q/C42S/C52S/M527D/S634C).
T1 construct: gene MX1; monomeric full-length-type MxA (M527D) with solvent-exposed cysteines replaced; N-terminal His6-PreScission tag cut, E. coli Rosetta (DE3); SEC peak ~70 kDa
T1 sequence (P20591 1-662 C42S/C52S/A149C/C322K/C336Q/M527D/S634C): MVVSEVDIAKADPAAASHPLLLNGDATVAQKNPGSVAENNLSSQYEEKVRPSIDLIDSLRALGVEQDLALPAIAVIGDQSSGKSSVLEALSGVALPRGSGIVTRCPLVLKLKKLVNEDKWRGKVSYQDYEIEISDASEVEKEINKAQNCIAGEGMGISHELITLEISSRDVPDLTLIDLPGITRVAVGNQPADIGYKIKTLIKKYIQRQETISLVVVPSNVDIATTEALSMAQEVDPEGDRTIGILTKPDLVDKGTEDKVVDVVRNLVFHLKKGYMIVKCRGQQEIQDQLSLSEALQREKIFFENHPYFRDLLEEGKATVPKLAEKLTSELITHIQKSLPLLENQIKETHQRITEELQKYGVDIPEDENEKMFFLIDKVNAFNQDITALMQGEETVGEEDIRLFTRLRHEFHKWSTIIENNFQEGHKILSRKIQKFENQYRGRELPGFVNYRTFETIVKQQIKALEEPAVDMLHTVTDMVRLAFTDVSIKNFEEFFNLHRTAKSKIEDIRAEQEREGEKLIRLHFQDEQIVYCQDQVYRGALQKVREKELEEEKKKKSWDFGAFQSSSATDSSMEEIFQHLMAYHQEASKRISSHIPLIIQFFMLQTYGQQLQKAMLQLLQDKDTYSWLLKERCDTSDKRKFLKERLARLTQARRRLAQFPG
In words: isothermal titration calorimetry. It is filed as binding. The settings on record: read-out: equilibrium dissociation constant. The method, then:
(§1) isothermal titration calorimetry on MxA^MO2 | The equilibrium dissociation constants for MxA^MO2-AS and MxA^MO2-RR to GDP and GMPPCP were determined
In general terms: Isothermal titration calorimetry measures the heat released or taken up as one component is titrated into another.

In assay [2] the target is T2, MxA^MO2 (Homo sapiens, UniProt P20591, C322K/C336Q/C42S/C52S/M527D/R352C/R500C).
T2 construct: gene MX1; monomeric full-length-type MxA (M527D) with solvent-exposed cysteines replaced; N-terminal His6-PreScission tag cut, E. coli Rosetta (DE3); SEC peak ~70 kDa
T2 sequence (P20591 1-662 C42S/C52S/C322K/C336Q/R352C/R500C/M527D): T1 sequence (P20591 1-662 C42S/C52S/A149C/C322K/C336Q/M527D/S634C) with C149A, R352C, R500C, C634S
The assay can be described thus: isothermal titration calorimetry. It is filed as binding. Particulars: read-out: equilibrium dissociation constant. The method, then: as §1

Where a chain is given by its changes, count along the chain named.

With `Nc1nc(O)c2ncn([C@@H]3O[C@H](COP(=O)(O)OP(=O)(O)C[P+]([O-])(O)O)[C@@H](O)[C@H]3O)c2n1` [GMPPCP, guanosine-5′-[(β,γ)-methyleno]triphosphate], the Kd at MxA^MO2 [1] stood at 30 ± 0.003 µM; at MxA^MO2 [2], 14.7 ± 0.13 µM.

As for `Nc1nc2c(ncn2[C@@H]2O[C@H](COP(=O)(O)OP(=O)(O)O)[C@@H](O)[C@H]2O)c(=O)[nH]1` [GDP], the Kd at MxA^MO2 [1] was found to be 42.6 ± 0.14 µM; at MxA^MO2 [2], 26.3 ± 0.03 µM.
